According to patent US20130011427A1 (priority 2009, published 2013):

Columns and labels:
[1] = tested on: HLA-DR4/huCD4 (DRB1*0401) Tg mice, CD8-depleted splenocytes; type: cell-based, mouse
[2] = molecular target: HLA-DR4 (HLA-DRA*0101 / HLA-DRB1*0401) (human); test: cell-based or functional assay
[3] = molecular target: HLA-DR3 (HLA-DRA*0101 / HLA-DRB1*0301) (human); test: cell-based or functional assay
[4] = tested on: HLA-DR2 (DRB1*1501) Tg mice, CD8-depleted splenocytes; type: cell-based, mouse
[5] = tested on: HLA-DR3 (DRB1*0301) Tg mice, CD8-depleted splenocytes; type: cell-based, mouse
[6] = molecular target: HLA-DR2 (chimeric HLA-DRA1*0101/DRB1*1501 with I-E domains) (human; murine) (UniProt Q8BHN5); test: cell-based or functional assay
[7] = tested on: HLA-A2.1 (HLA-A*0201) Tg mice, CD4-depleted splenocytes; type: cell-based, mouse
[8] = molecular target: HLA-A2.1 (HHD monochain) (human; murine); test: cell-based or functional assay

UniProt Q8BHN5, sequence (Q8BHN5 whole entry, stated change not applied): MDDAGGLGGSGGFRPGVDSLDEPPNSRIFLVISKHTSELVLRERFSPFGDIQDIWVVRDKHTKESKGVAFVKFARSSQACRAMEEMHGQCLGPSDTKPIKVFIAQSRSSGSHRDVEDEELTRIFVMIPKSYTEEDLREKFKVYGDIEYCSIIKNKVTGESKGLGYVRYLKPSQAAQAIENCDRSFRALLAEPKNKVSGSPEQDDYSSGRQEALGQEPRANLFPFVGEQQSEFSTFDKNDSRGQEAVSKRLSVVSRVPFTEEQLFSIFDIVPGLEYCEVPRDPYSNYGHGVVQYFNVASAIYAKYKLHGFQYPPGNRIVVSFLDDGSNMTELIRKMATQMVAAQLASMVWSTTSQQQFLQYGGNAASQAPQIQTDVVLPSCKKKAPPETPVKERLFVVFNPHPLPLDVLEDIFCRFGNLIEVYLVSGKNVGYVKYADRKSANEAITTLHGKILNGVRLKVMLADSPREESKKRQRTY

KVLIELEPPFGDSYIVV [E 370-386]
T cell activation of HLA transgenic mice (SFC/10^6) IFN-γ ELISpot, DR4 [1]: 148 ± 10 SFC/10^6

WNV NS3 581-597 peptide
IFN-γ ELISpot (SFC/10^6) [2]: 52 SFC/10^6

WNV NS3 45-59 peptide
IFN-γ ELISpot (SFC/10^6) [3]: 63 SFC/10^6

PATAWSLYAVTTAVLTPL [NS4b 38-55]
T cell activation of HLA transgenic mice (SFC/10^6) IFN-γ ELISpot, DR2 [4]: 57 ± 11 SFC/10^6
T cell activation of HLA transgenic mice (SFC/10^6) IFN-γ ELISpot, DR3 [5]: 67 ± 13 SFC/10^6

WNV NS4b 187-204 peptide
IFN-γ ELISpot (SFC/10^6) [2]: 83 SFC/10^6

WNV E 398-415 peptide
IFN-γ ELISpot (SFC/10^6) [6]: 168 SFC/10^6
IFN-γ ELISpot (SFC/10^6) [3]: 88 SFC/10^6

LITAAAVTLWENGASSVW [NS4b 201-218]
T cell activation of HLA transgenic mice (SFC/10^6) IFN-γ ELISpot, DR3 [5]: 99 ± 26 SFC/10^6
T cell activation of HLA transgenic mice (SFC/10^6) IFN-γ ELISpot, DR4 [1]: 73 ± 8 SFC/10^6

PFVDVGVSALLLAAGCW [NS4b 87-103]
T cell activation of HLA transgenic mice (SFC/10^6) IFN-γ ELISpot, DR4 [1]: 59 ± 14 SFC/10^6

WNV E 127-144 peptide
IFN-γ ELISpot (SFC/10^6) [6]: 120 SFC/10^6
IFN-γ ELISpot (SFC/10^6) [3]: 198 SFC/10^6

DYINTSLTSINVQASALF [NS4b 63-80]
T cell activation of HLA transgenic mice (SFC/10^6) IFN-γ ELISpot, DR3 [5]: 386 ± 60 SFC/10^6
T cell activation of HLA transgenic mice (SFC/10^6) IFN-γ ELISpot, DR4 [1]: 92 ± 13 SFC/10^6

EVITKLGERKILRPRWI [NS3 581-597]
T cell activation of HLA transgenic mice (SFC/10^6) IFN-γ ELISpot, DR4 [1]: 52 ± 11 SFC/10^6

WNV NS5 791-808 peptide
IFN-γ ELISpot (SFC/10^6) [2]: 78 SFC/10^6

NMPNGLIAQFYQPEREKV [NS3 500-517]
T cell activation of HLA transgenic mice (SFC/10^6) IFN-γ ELISpot, DR2 [4]: 51 ± 10 SFC/10^6
T cell activation of HLA transgenic mice (SFC/10^6) IFN-γ ELISpot, DR3 [5]: 145 ± 49 SFC/10^6

EGRVEIDFDYCPGTTVTL [NS1 270-287]
T cell activation of HLA transgenic mice (SFC/10^6) IFN-γ ELISpot, DR4 [1]: 54 ± 6 SFC/10^6

VVNPSVKTVREAGILITA [NS4b 187-204]
T cell activation of HLA transgenic mice (SFC/10^6) IFN-γ ELISpot, DR4 [1]: 83 ± 13 SFC/10^6

WNV NS2a 65-81 peptide
IFN-γ ELISpot (SFC/10^6) [2]: 60 SFC/10^6

DTPSPKEYKKGDTTTGVY [NS3 6-23]
T cell activation of HLA transgenic mice (SFC/10^6) IFN-γ ELISpot, DR4 [1]: 43 ± 6 SFC/10^6

WNV NS1 327-343 peptide
IFN-γ ELISpot (SFC/10^6) [2]: 78 SFC/10^6

GKLITDWCCRSCTLPPLR [NS1 305-322]
T cell activation of HLA transgenic mice (SFC/10^6) IFN-γ ELISpot, DR3 [5]: 557 ± 25 SFC/10^6
T cell activation of HLA transgenic mice (SFC/10^6) IFN-γ ELISpot, DR4 [1]: 109 ± 22 SFC/10^6

RVVFVVLLLLVAPAYS [prM 152-167]
T cell activation of HLA transgenic mice (SFC/10^6) IFN-γ ELISpot, A2 [7]: 318 ± 179 SFC/10^6
T cell activation of HLA transgenic mice (SFC/10^6) IFN-γ ELISpot, DR2 [4]: 269 ± 30 SFC/10^6
T cell activation of HLA transgenic mice (SFC/10^6) IFN-γ ELISpot, DR3 [5]: 90 ± 47 SFC/10^6
T cell activation of HLA transgenic mice (SFC/10^6) IFN-γ ELISpot, DR4 [1]: 117 ± 10 SFC/10^6

WNV NS1 1-19 peptide
IFN-γ ELISpot (SFC/10^6) [3]: 572 SFC/10^6

LVAAVIGWMLGSNTMQRV [prM 136-153]
T cell activation of HLA transgenic mice (SFC/10^6) IFN-γ ELISpot, DR2 [4]: 235 ± 9 SFC/10^6
T cell activation of HLA transgenic mice (SFC/10^6) IFN-γ ELISpot, DR3 [5]: 78 ± 35 SFC/10^6
T cell activation of HLA transgenic mice (SFC/10^6) IFN-γ ELISpot, DR4 [1]: 327 ± 162 SFC/10^6

WNV E 293-310 peptide
IFN-γ ELISpot (SFC/10^6) [2]: 47 SFC/10^6

CLNLDVYRILLLMVGI [NS2a 168-183]
T cell activation of HLA transgenic mice (SFC/10^6) IFN-γ ELISpot, DR2 [4]: 556 ± 33 SFC/10^6
T cell activation of HLA transgenic mice (SFC/10^6) IFN-γ ELISpot, DR3 [5]: 231 ± 16 SFC/10^6

GWYDWQQVPFCSNHFTEL [NS5 704-721]
T cell activation of HLA transgenic mice (SFC/10^6) IFN-γ ELISpot, DR4 [1]: 65 ± 27 SFC/10^6

WNV NS5 605-622 peptide
IFN-γ ELISpot (SFC/10^6) [6]: 556 SFC/10^6
IFN-γ ELISpot (SFC/10^6) [2]: 240 SFC/10^6

NTFTNLAVQLVRMMEGEGV [NS5 613-631]
T cell activation of HLA transgenic mice (SFC/10^6) IFN-γ ELISpot, DR4 [1]: 119 ± 21 SFC/10^6

GQVVTYALNTFTNLAVQL [NS5 605-622]
T cell activation of HLA transgenic mice (SFC/10^6) IFN-γ ELISpot, DR2 [4]: 556 ± 27 SFC/10^6
T cell activation of HLA transgenic mice (SFC/10^6) IFN-γ ELISpot, DR4 [1]: 240 ± 76 SFC/10^6

WNV E 62-77 peptide
IFN-γ ELISpot (SFC/10^6) [8]: 465 SFC/10^6
IFN-γ ELISpot (SFC/10^6) [2]: 47 SFC/10^6

FAESNSGGDVVHLALMA [NS2a 65-81]
T cell activation of HLA transgenic mice (SFC/10^6) IFN-γ ELISpot, DR4 [1]: 60 ± 13 SFC/10^6

WNV NS1 270-287 peptide
IFN-γ ELISpot (SFC/10^6) [2]: 54 SFC/10^6

CYGGHTNEDDSNFAHW [NS3 474-489]
T cell activation of HLA transgenic mice (SFC/10^6) IFN-γ ELISpot, A2 [7]: 92 ± 18 SFC/10^6
T cell activation of HLA transgenic mice (SFC/10^6) IFN-γ ELISpot, DR3 [5]: 83 ± 23 SFC/10^6

WNV NS4a 1-17 peptide
IFN-γ ELISpot (SFC/10^6) [3]: 132 SFC/10^6

WNV NS5 115-132 peptide
IFN-γ ELISpot (SFC/10^6) [3]: 79 SFC/10^6

GWPATEVMTAVGLMFAIV [NS2b 1-18]
T cell activation of HLA transgenic mice (SFC/10^6) IFN-γ ELISpot, DR4 [1]: 104 ± 18 SFC/10^6

VTVNPFVSVATANAKVLI [E 356-373]
T cell activation of HLA transgenic mice (SFC/10^6) IFN-γ ELISpot, DR4 [1]: 217 ± 51 SFC/10^6

PREHNGNEIVDVMCHATL [NS3 249-266]
T cell activation of HLA transgenic mice (SFC/10^6) IFN-γ ELISpot, A2 [7]: 79 ± 27 SFC/10^6
T cell activation of HLA transgenic mice (SFC/10^6) IFN-γ ELISpot, DR2 [4]: 139 ± 25 SFC/10^6
T cell activation of HLA transgenic mice (SFC/10^6) IFN-γ ELISpot, DR4 [1]: 46 ± 16 SFC/10^6

WNV NS2b 1-18 peptide
IFN-γ ELISpot (SFC/10^6) [2]: 104 SFC/10^6

AHWTEARIMLDNINM [NS3 487-501]
T cell activation of HLA transgenic mice (SFC/10^6) IFN-γ ELISpot, A2 [7]: 308 ± 188 SFC/10^6
T cell activation of HLA transgenic mice (SFC/10^6) IFN-γ ELISpot, DR3 [5]: 431 ± 112 SFC/10^6
